This is an account of results in patent publication US20260124191A1, “HISTONE DEACETYLASE INHIBITOR AND USES THEREOF” (NANJING HONGSHUN PHARMACEUTICAL TECHNOLOGY CO., LTD, priority 2023, published 2026).

Test [1] deals with HDAC. In words: HDAC inhibitory activity assay (FRET). Format: biochemical. The note with it: for Inhibition rate: test concentration 100 nM, relative to DMSO control; for IC50: HDAC, FRET, read-out: Half-maximal inhibitory concentration (IC50 ± SD). How it is done: The HDAC inhibitory activity of the synthesized compounds was determined by fluorescence resonance energy transfer (FRET), and then compared with that of the positive control to screen out compounds with better activity. HDAC was obtained by purification or purchased directly.
The method was as follows.
An enzyme was added to reaction wells, a reaction buffer was added to control wells, a sample dissolved in DMSO was added to the reaction wells, and the wells were incubated using a contactless nanoflow sonic pipetting system (Ech-550; nanoflow). A fluorescent substrate was added to each reaction well and then rotated and shaken. The wells were incubated for 1-2 h at 30° C. under a sealed condition. A TMP26-containing chromogenic agent was added to terminate the reaction and produce fluorescence. The fluorescence intensity was detected using En Vision multi-label microplate detector (Perkin Elmer) (excitation light: 490 nm, emitted light: 520 nm). After the stabilization of color development, the endpoint value was read. The percentage (relative to the DMSO control group) inhibition rate was calculated using the software GraphPad Prism 4.

Test [2] concerns human prostate cancer cells DU145. In words: In vitro anti-tumor activity, MTT method. Format: cell-based. The note with it: Homo sapiens, DU-145, 96 h, 96-hour treatment. The protocol:
(§1) The inhibitory effects of the compounds against human non-small cell lung cancer cell lines A549, NCI-H1650, human small cell lung cancer cell lines H446, human prostate cancer cells DU145, PC-3, LNCAP, human colon cancer cells lines HCT116, human breast cancer cells MDA-MB-231, and MCF7 tumor cell lines were determined using the MTT method.
(§2) The method was as follows. The cells in the exponential growth phase were collected to count living cells. The concentration of the cell suspension was adjusted using the corresponding medium of each group of cells. The cell suspension was added to the 96-well culture plate at 100 μL per cell, and the plate was placed in a 5% CO2 incubator at 37° C. and incubated for 24 h. Each test compound was dissolved in DMSO to prepare a stock solution with a corresponding concentration. Then, each stock solution was diluted 500-fold with the medium to prepare 4 replicate wells. 100 μL of the corresponding 500-fold solution was added to each well per cell line, with the final DMSO concentration of 0.1%. […] The half-maximal (relative to the DMSO control group) inhibition rate was calculated using the software GraphPad Prism 4.
On the technique in general: Formazan colour is commonly taken as a measure of viable cells.

The test system of test [3] is human breast cancer cells MDA-MB-231. In words: In vitro anti-tumor activity, MTT method. Format: cell-based. The note with it: MDA-MB-231, MTT, 96-hour treatment, read-out: Antiproliferative Activity (IC50 ± SD, μM) MDA-MB-231. How it is done:
as §1, §2

The subject of test [4] is human prostate cancer cells LNCAP. In words: In vitro anti-tumor activity, MTT method. The note with it: 96-hour treatment, read-out: Antiproliferative Activity (IC50 ± SD, μM) LNCAP. Format: cell-based. The protocol: as §1, §2
The test system of test [5] is human non-small cell lung cancer cell line NCI-H1650. In words: In vitro anti-tumor activity, MTT method. Format: cell-based. The note with it: 96-hour treatment, read-out: Antiproliferative Activity (IC50 ± SD, μM) H1650. The protocol:
as §1, §2

The test system of test [6] is human prostate cancer cells PC-3. In words: In vitro anti-tumor activity, MTT method. The note with it: Homo sapiens, 96 h, PC-3, MTT, 96-hour treatment. It is filed as cell-based. How it is done: as §1, §2
Test [7] deals with human breast cancer cells MCF7. Kind of test: In vitro anti-tumor activity, MTT method. It is filed as cell-based. The note with it: Homo sapiens, MCF7, 96 h, MCF-7, MTT, 96-hour treatment. The protocol:
as §1, §2

Test [8] deals with human small cell lung cancer cell line H446. Kind of test: In vitro anti-tumor activity, MTT method. Format: cell-based. The note with it: NCI-H446, 96-hour treatment, read-out: Antiproliferative Activity (IC50 ± SD, μM) H446. How it is done:
as §1, §2

For test [9], the system named is human non-small cell lung cancer cell line A549. In words: In vitro anti-tumor activity, MTT method. It is filed as cell-based. The note with it: Homo sapiens, A549, 96 h, 96-hour treatment. How it is done: as §1, §2
Test [10] concerns human colon cancer cell line HCT116. Kind of test: In vitro anti-tumor activity, MTT method. Format: cell-based. The note with it: HCT-116, 96-hour treatment, read-out: Antiproliferative Activity (IC50 ± SD, μM) HCT116. The protocol: as §1, §2
Test [11] relates to HT29. In words: In vitro anti-tumor activity, MTT method. The note with it: Homo sapiens, HT-29, 96-hour treatment, read-out: Antiproliferative Activity (IC50 ± SD, μM) HT29. Format: cell-based.

Each structure is given as a SMILES string.

For `O=C(CCCCCCN1C(=O)C/C(=C\c2ccc3ccccc3c2)C1=O)NO` [Example I-22, (E)-7-(3-(2-methylenenaphthyl)-2,5-diketopyrrolidinyl)-N-hydroxyheptamide], the Inhibition rate in test [1] was 89.4% ± 0.9%. For the same compound, the IC50 in [2] was determined as 340 ± 30 nM; in test [3] it was 0.98 ± 0.11 µM; in test [4] it was 1.48 ± 0.2 µM; in test [5], 4.42 ± 0.72 µM; in test [6] it was 1290 ± 140 nM; in test [7] it was 980 ± 20 nM. The IC50 in [8] came to 0.7 ± 0.1 µM; in test [9], 1800 ± 140 nM; in test [10] it was 0.91 ± 0.11 µM; in test [11], 1.69 ± 0.1 µM.

For the compound `O=C(CCCCCCN1C(=O)C/C(=C\c2ccccc2)C1=O)NO` [Example I-4], the IC50 in test [1] stood at 12.9 ± 0.1 nM; in [2], 500 ± 70 nM; in [3], 0.67 ± 0.1 µM; in test [4] it was 1.63 ± 0.24 µM; in test [5], 6.12 ± 0.88 µM; in test [6], 820 ± 70 nM. Further, the IC50 in [7] stood at 1430 ± 60 nM; in test [8], 0.57 ± 0.03 µM; in test [9], 1320 ± 170 nM; in [10], 0.75 ± 0.08 µM; in [11], 1.76 ± 0.25 µM.

For `O=C(CCCCCCN1C(=O)C/C(=C\c2cccc(Cl)c2)C1=O)NO` [Example I-25, (E)-7-(3-(3-chlorobenzal)-2,5-diketopyrrolidinyl)-N-hydroxyheptamide], the Inhibition rate in test [1] is 91.2% ± 0.7%. Also, the IC50 in test [2] was found to be 380 ± 40 nM; in test [3], 2.05 ± 0.2 µM; in [4] it was 1.95 ± 0.21 µM; in test [5], 7.3 ± 0.56 µM; in test [6] it was 1700 ± 80 nM; in test [7], 1050 ± 240 nM. Also, the IC50 in [8] was determined as 0.78 ± 0.04 µM; in [9] it was 1120 ± 200 nM; in [10], 0.81 ± 0.06 µM; in test [11] it was 1.3 ± 0.1 µM.

As for `COc1ccccc1/C=C1\CC(=O)N(CCCCCCC(=O)NO)C1=O` [Example I-31, (E)-7-(3-(2-methoxybenzal)-2,5-diketopyrrolidinyl)-N-hydroxyheptamide], the IC50 in [1] came out at 12.6 ± 0.15 nM; in test [2], 160 ± 40 nM; in test [3], 0.31 ± 0.05 µM; in test [4], 0.63 ± 0.12 µM; in [5], 3.56 ± 0.1 µM; in test [6] it was 820 ± 90 nM. Moreover, the IC50 in [7] came out at 350 ± 20 nM; in test [8] it was 0.65 ± 0.05 µM; in test [9], 1390 ± 60 nM; in [10], 0.47 ± 0.01 µM; in test [11] it was 1.05 ± 0.1 µM.

Turning to `O=C(CCCCCCN1C(=O)C/C(=C\c2ccc(Cl)c(Cl)c2)C1=O)NO` [Example I-30, (E)-7-(3-(3,4-dichlorobenzal)-2,5-diketopyrrolidinyl)-N-hydroxyheptamide], the Inhibition rate in test [1] was 82.1% ± 0.1%. In addition, the IC50 in test [2] is 440 ± 80 nM; in [6], 1690 ± 80 nM; in test [7], 900 ± 20 nM; in test [9], 2340 ± 100 nM.

`O=C(CCCCCN1C(=O)C/C(=C\c2ccccc2)C1=O)N[C@H]1CCCC[C@@H]1O` [Example I-12, 6-(3-((E)-benzal)-2,5-diketopyrrolidinyl)-N-((1S,2S)-2-hydroxycyclohexyl)hexanamide] displayed an Inhibition rate in test [1] of 0%. Besides, the IC50 in test [2], in [6], in test [7] and in test [9] was greater than 20000 nM throughout.

In the case of `O=C(CCCCCCN1C(=O)C/C(=C\c2ccc(Cl)cc2)C1=O)NO` [Example I-26, (E)-7-(3-(4-chlorobenzal)-2,5-diketopyrrolidinyl)-N-hydroxyheptamide], the Inhibition rate in [1] was 86.6% ± 0.4%. In addition, the IC50 amounted to 570 ± 40 nM in test [2], 890 ± 120 nM in [6], 690 ± 90 nM in test [7] and 2200 ± 260 nM in test [9].

Regarding `COc1ccc(/C=C2\CC(=O)N(CCCCCCC(=O)NO)C2=O)cc1` [Example I-33, (E)-7-(3-(4-methoxybenzal)-2,5-diketopyrrolidinyl)-N-hydroxyheptamide], the IC50 in test [1] worked out at 13 ± 0.02 nM; in test [2] it was 500 ± 100 nM; in test [6], 890 ± 100 nM; in test [7], 1020 ± 110 nM; in test [9], 1520 ± 140 nM.

`O=C(CCCCCCN1C(=O)C/C(=C\c2ccccc2Cl)C1=O)NO` [Example I-24, (E)-7-(3-(2-chlorobenzal)-2,5-diketopyrrolidinyl)-N-hydroxyheptamide]: the IC50 in [1] stood at 19.3 ± 0.11 nM; in test [2] it was 480 ± 60 nM; in test [3], 0.99 ± 0.11 µM; in [4] it was 1.51 ± 0.22 µM; in test [5] it was 6.6 ± 0.57 µM; in test [6], 1440 ± 100 nM. Moreover, the IC50 in [7] stood at 580 ± 30 nM; in test [8], 0.77 ± 0.1 µM; in [9] it was 1330 ± 230 nM; in test [10], 0.86 ± 0.08 µM; in [11], 1.22 ± 0.1 µM.

Turning to `COc1cccc(/C=C2\CC(=O)N(CCCCCCC(=O)NO)C2=O)c1` [Example I-32, (E)-7-(3-(3-methoxybenzal)-2,5-diketopyrrolidinyl)-N-hydroxyheptamide], the IC50 came out at 18.5 ± 0.19 nM in test [1]; 400 ± 40 nM in test [2]; 920 ± 30 nM in test [6]; 880 ± 90 nM in test [7]; 1240 ± 210 nM in test [9].

On to `O=C(CCCCCCN1C(=O)C/C(=C\c2cccc(F)c2)C1=O)NO` [Example I-28, (E)-7-(3-(3-fluorobenzal)-2,5-diketopyrrolidinyl)-N-hydroxyheptamide], for which, in [1], the Inhibition rate is 85.2% ± 1.6%. Also, the IC50 in test [2] was determined as 660 ± 120 nM; in test [6], 890 ± 50 nM; in test [7], 920 ± 50 nM; in [9] it was 3020 ± 510 nM.

In turn, `Nc1cc(F)ccc1NC(=O)CCCCN1C(=O)C/C(=C\c2ccccc2)C1=O` [Example I-7, (E)-N-(2-amino-4-fluorophenyl)-5-(3-benzal-2,5-diketopyrrolidinyl)pentanamide] had an Inhibition rate in test [1] of 0%. Also, the IC50 in test [2], in test [6], in [7] and in test [9] was greater than 20000 nM in each case.

Turning to `COc1ccc(Br)cc1/C=C1\CC(=O)N(CCCCCCC(=O)NO)C1=O` [Example I-39, (E)-7-(3-(5-bromo-2-methoxybenzal)-2,5-diketopyrrolidinyl)-N-hydroxyheptamide], in test [1], the Inhibition rate is 88.1% ± 1.1%. For the same compound, the IC50 came to 460 ± 40 nM in test [2], 1130 ± 70 nM in [6], 680 ± 90 nM in [7] and 2210 ± 270 nM in [9].

Consider `COc1ccc(/C=C2\CC(=O)N(CCCCCCC(=O)NO)C2=O)cc1OC` [Example I-34, (E)-7-(3-(3,4-dimethoxybenzal)-2,5-diketopyrrolidinyl)-N-hydroxyheptamide], for which the Inhibition rate in test [1] was 85.3% ± 7.2%. For the same compound, the IC50 came to 450 ± 120 nM in test [2], 880 ± 100 nM in test [6], 820 ± 90 nM in [7] and 1230 ± 170 nM in test [9].

As for `COc1cc(/C=C2\CC(=O)N(CCCCCCC(=O)NO)C2=O)cc(OC)c1O` [Example I-36, (E)-7-(3-(4-hydroxy-3,5-dimethoxybenzal)-2,5-diketopyrrolidinyl)-N-hydroxyheptamide], the Inhibition rate in test [1] was 74.8% ± 2.8%. Moreover, the IC50 in test [2] was 3880 ± 40 nM; in [6], 1730 ± 200 nM; in [7] it was 1880 ± 140 nM; in [9] it was greater than 10000 nM.

As for `O=C(CCCCCCN1C(=O)C/C(=C\c2ccc(C(F)(F)F)cc2)C1=O)NO` [Example I-17, (E)-7-(3-(4-trifluoromethylbenzal)-2,5-diketopyrrolidinyl)-N-hydroxyheptamide], in test [1], the Inhibition rate is recorded as 76.2% ± 0.7%. Besides, the IC50 in [2] stood at 1220 ± 180 nM; in [6], 1830 ± 50 nM; in [7], 1680 ± 90 nM; in test [9] it was 3370 ± 430 nM.
